Results as given in patent US7122668B2, “Platinum complexes and their use in therapy” (priority 2002, dated 2006).
Where two headings read alike, the source gives them in different places.

What was measured:
C-26 cells [1] = format: cell-based; conditions: C-26 cells, mean ± SD
Description: (§1) A human ovarian carcinoma cell line (OV-1063), established at the Hadassah University hospital and human colon carcinoma cell line (C-26) were maintained in RPMI-1640 medium supplemented with 10% FCS, antibiotics and glutamine. All culture medium components were purchased from Biological Industries (Beit-HaEmek, Israel). Both cell lines were maintained at 37° C. in a water-jacketed CO2 incubator.
(§2) Cytotoxicity of the synthesized complexes was tested by the methylene blue (MB) staining assay^(19). A fixed number of exponentially growing cells in 200 μl medium were plated in 96-microwell, flat-bottomed plates. For each of the complexes tested, 4 well were used. Following 24 hr in culture, 20 μl of different concentration of the complexes were added to each well containing untreated cells. Normal saline was added to the controls. Cells were exposed to complexes for 4, 24, or 72 hr. At the end of exposure for a fixed time interval, the treated cells as well as parallel control cells were washed and incubation was continued in fresh medium until termination of the experiment. Following 72 hr of growth, cells were fixed by adding 50 μl of 2.5% of glutaraldehyde to each well for 15 min. Fixed cells were rinsed 10 times with fresh de-ionized water and once with borate buffer (0.1 M, pH=8.5), dried and stained with MB (100 μl of 1% solution in 0.1 M borate buffer, pH=8.5) for 1 hr at room temperature. Stained cells were rinsed thoroughly with de-ionized water to remove any non-cell-bound die and then dried. The MB bound to the fixed cells was extracted by incubation at 37° C. with 200 μl of 0.1N HCl for 1 hr, and the net optical density (OD) of the die in each well was determined by a plate spectrophotometer (Labsystems Multyskan BICHROMATIC, Finland) at 620 nm.

OV-1063 cells [2] = assay: Methylene blue (MB) assay of cell survival; format: cell-based, human; conditions: mean ± SD
Description: as §1, §2

41McisR = assay: Microculture tetrazolium (MTS) cell survival assay; format: cell-based; conditions: for resistance factor (IC50 resistant/IC50 sensitive): 41McisR/41M; for IC50: 24 hours incubation, MTS
Description: (§3) Cytotoxicity of the synthesized complexes was also tested by the MTS method^(21). Accordingly, the compounds were incubated for 24 hours with the corresponding cell lines and the cell survival in compound-treated cultures was evaluated.
(§4) The complexes were incubated for 24 hours with the above mentioned cell lines and the cell survival in compound-treated cultures was evaluated by the (microculture tetrazolium) MTS method as previously reported.

41M = assay: Microculture tetrazolium (MTS) cell survival assay; format: cell-based; conditions: 24 hours incubation
Description: as §3, §4

A2780cisR = assay: Microculture tetrazolium (MTS) cell survival assay; format: cell-based; conditions: for IC50: 24 hours incubation, MTS; for resistance factor (IC50 resistant/IC50 sensitive): A2780cisR/A2780
Description: as §3, §4

A2780 = assay: Microculture tetrazolium (MTS) cell survival assay; format: cell-based; conditions: 24 hours incubation
Description: as §3, §4

CH1cisR = assay: Microculture tetrazolium (MTS) cell survival assay; format: cell-based; conditions: for IC50: 24 hours incubation, MTS; for resistance factor (IC50 resistant/IC50 sensitive): CH1cisR/CH1
Description: as §3, §4

CH1 = assay: Microculture tetrazolium (MTS) cell survival assay; format: cell-based; conditions: 24 hours incubation
Description: as §3, §4

C-26 cells [3] = assay: Platinum complex intracellular accumulation (FAAS); format: cell-based, human; conditions: C-26, 24 hr
Description: (§5) Cells were seeded for 48 hr before one of the complexes was added to the culture medium. After 24 hr of exposure, the complexes were removed and the cells washed twice with ice-cold PBS and pelleted. The cells (1*10^6) were dried and mineralized by heating for 10 min in 65% HNO3 (BDH, England)^(22). Samples were dissolved in de-ionized water and each sample was measured at two different dilutions by flameless Zeeman atomic absorption spectrometer (FAAS). The calibration curves included 5 standards of K2PtCl4 stock solution with concentrations ranging from 50 to 250 ng platinum per ml. Platinum content was expressed as picomoles platinum per 1*10^6 cells.
(§6) The Pt content associated with the cells was measured by Atomic Absorption Spectroscopy (AAS).

OV-1063 cells [4] = assay: Platinum complex intracellular accumulation (FAAS); format: cell-based, human; conditions: OV-1063, 24 hr
Description: as §5, §6

C-26 cells [5] = assay: Determination of Pt-DNA adducts by FAAS; format: cell-based, human; conditions: for Pt-DNA adducts: C-26, 24 hr
Description: (§7) Cells were seeded for 48 hr before one of the drugs was added to the culture medium. After 24 hr of exposure, the complexes were removed and the cells washed twice with ice-cold PBS and pelleted. DNA from platinum-containing material (2*10^6 cells) was extracted from the cell pellet by QIAamp DNA Blood Kit (QIAGEN, Germany) according to the manufacture instructions. DNA yield was determined by measuring the concentration of DNA in the eluate by absorbance at 260 nm.

OV-1063 cells [6] = assay: Determination of Pt-DNA adducts by FAAS; format: cell-based, human; conditions: for Pt-DNA adducts: OV-1063, 24 hr
Description: as §7

calf thymus DNA = assay: DNA binding (calf thymus DNA platination); conditions: for t1/2 half time of the binding to calf thymus DNA: 10 mM NaClO4, 37° C., ri = 0.08, differential pulse polarography; for ΔΔεmax, maximum of the positive CD band at around 275 nm: difference between control and platinated DNA
Description: The formation of calf thymus DNA platination was also examined. To this end, calf thymus DNA was incubated with different compounds (Table 3) in which the following parameters were determined: […]

caspase-3 in C-26 cells = assay: EnzChek Caspase-3 assay; format: cell-based, human; conditions: 4.5 μM complex, cisplatin 1.5 μM, 5 or 16 hrs
Text: (§8) (2) By the EnzChektm Caspase-3 Assay Kit (Molecular probes, Eugene, Oreg.). This Kit allows the detection of apoptosis by assaying for increases in caspase-3 and other DEVD-specific protease activities (e.g., caspase-7). The basis for the assay is rodamine 110 bis-(N-CBZ-aspartil-L-glutarnyl-L-valyl-aspartic acid amide) (Z-DEVD-R110). This substrate is a bisamide derivative of rhodamine 110(R110) containing DEVD peptides covalently linked to each of R110's amino groups. Upon enzymatic cleavage, the non-fluorescent bisamide substrate converted to the fluorescent R110, which can be quantified by fluorescence microplate reader using excitation at 485±10 nm and emission detection at 535±10 nm.
(§9) (12) (5 μM and 7.5 μM, respectively) for 5 or 16 hr. Both “induced” and “control” cells were then harvested and lysed. Enzyme reactions were performed in 96-well plates with 50 μg of cytosolic proteins (55 minutes of incubation) and with a final concentration of 25 μM Z-DEVD-R110 substrate as described in the kit protocol.

[7] = test system: caspase-3 in OV-1063 cells; assay: EnzChek Caspase-3 assay; format: cell-based, human
Text: as §8, §9

C-26 colon carcinoma = assay: In vivo antitumor efficacy; design: species or system BALB/C mice; conditions: 5 mg/kg, three injections at weekly intervals from day 3 after i.p. tumor inoculation
Description: Female BALB/C mice (in the weight range of 17–20 g) were injected i.p. with 1*10^6 C-26 colon carcinomas.
Treatment began at day 3 after tumor inoculation and was repeated twice for a total of three injections at weekly intervals.
Female BALB/C mice (in the weight range of 17–20 gr) were injected i.p. with 1*10^6 C-26 colon carcinomas.
Treatment was as performed according to the schedule described above.

plasmid pS16-hGH DNA = assay: Determination of Pt-DNA adducts by EtBr fluorescence; format: binding; conditions: DNA modified 24 hr
Description: A plasmid (4.8 kbp) containing a gene coding for human growth hormone, plasmid pS16-hGH, was prepared as previously described^(23). The freshly prepared DNA was analyzed by agarose gel (1%) electrophoresis using post-staining with SYBR Green I fluorescent dye (Molecular Probes, Eugene, Oreg.). […] The ratio of absorbance at 260 nm to that at 280 nm was always between 1.8 and 1.9.
DNA were modified by the platinum complexes in 10 mM NaClO4 (pH 7.0) at 37° C. in the dark for 24 hr. Measurements of EtBr fluorescence were performed on an LS50B luminescence spectrometer (Perkin Elmer, Norwalk, Conn.). Fluorescence measurements of DNA modified by platinum in the presence of EtBr were performed using the excitation wavelength of 546 nm (slit 10 run) and emission wavelength of 590 nm (slit 10 nm) at 25° C. The concentrations were 0.01 mg/ml for DNA and 0.04 mg/ml for EtBr, which corresponded to the saturation of all intercalation sites of EtBr in DNA.
EtBr, as the fluorescent probe, was used to distinguish between perturbations induced in DNA by adducts of platinum (II) compounds^(14). Binding of EtBr by intercalation is blocked in a stoichiometric manner by formation of the bifunctional adducts, as of Cis-Pt, which results in a loss of fluorescence intensity. On the other hand, formation of monofunctional adducts results only in a slight decrease of EtBr fluorescence.

[8] = 4 h exposure, read-out: IC50, 4 h
[9] = 24 h exposure, read-out: IC50, 24 h
[10] = 72 h exposure, read-out: IC50, 72 h

Molecule | IC50 (C-26 cells [1]; [8]) [µM] | IC50 (C-26 cells [1]; [9]) [µM] | IC50 (C-26 cells [1]; [10]) [µM] | IC50 (OV-1063 cells [2]; [8]) [µM] | IC50 (OV-1063 cells [2]; [9]) [µM] | IC50 (41McisR) [µM] | IC50 (41M) [µM] | IC50 (A2780cisR) [µM] | IC50 (A2780) [µM] | IC50 (CH1cisR) [µM] | IC50 (CH1) [µM] | Penetration to cells (C-26 cells [3]) [pmol Pt/1 * 10^6 cells] | Penetration to cells (OV-1063 cells [4]) [pmol Pt/1 * 10^6 cells] | Pt-DNA adducts (C-26 cells [5]) [pmol Pt/50 μg DNA] | Pt-DNA adducts (OV-1063 cells [6]) [pmol Pt/50 μg DNA] | % IEC/adduct, frequency of interstrand crosslinks (calf thymus DNA) [%] | unwinding angle per adduct (calf thymus DNA) [°] | t1/2 half time of the binding to calf thymus DNA (calf thymus DNA) [h] | ΔTm, 0.2 M (calf thymus DNA; rb = 0.05) | ΔΔεmax, maximum of the positive CD band at around 275 nm (calf thymus DNA; rb = 0.05) | further results
N.N.[Cl][Pt][Cl] [Cisplatin, cis-[PtCl2(NH3)2], reference compound] | 1.5 ± 1.3 | 0.6 ± 0.1 | 0.2 ± 0.2 | 2 ± 0.5 | 0.7 ± 0.2 | 107 | 26 | 38 | 2.2 | 23 | 6 | 2244 | 194 | 149 | 107 | 6 | 13 | 1.67 | −4.0 0.C | 1.27 | IC50 (OV-1063 cells [2]; [10]): 0.5 ± 0.2 µM; resistance factor (IC50 resistant/IC50 sensitive) (41McisR): 4.1; resistance factor (IC50 resistant/IC50 sensitive) (A2780cisR): 17.3; resistance factor (IC50 resistant/IC50 sensitive) (CH1cisR): 3.8; ΔTm, 0.01M Na+ (calf thymus DNA; rb = 0.05, 0.01M Na+): −2.6 0.C; caspase-3 fluorescent signal (caspase-3 in C-26 cells): No fluorescent signal; caspase-3 fluorescent signal ([7]; cisplatin 2 μM, 5 or 16 hrs): No fluorescent signal; Increase in life span (C-26 colon carcinoma): 108%; Survival (C-26 colon carcinoma): 24 ± 5 days
N.N.[Cl][Pt+2][Cl] [Transplatin, trans-[PtCl2(NH3)2], reference compound] | 64 ± 2 | 46 ± 3.1 | 41 ± 1.7 | 81 ± 4.3 | 73 ± 5.1 | > 200 | > 200 | > 200 | > 200 | > 200 | > 200 | 384 | 474 | 0 | 0 | 12 | 9.4 | 1.67 | +0.6 0.C | −0.34 | IC50 (OV-1063 cells [2]; [10]): 52 ± 3.2 µM; ΔTm, 0.01M Na+ (calf thymus DNA; rb = 0.05, 0.01M Na+): +8.7 0.C
Trans-[PtCl2(4-picoline)(piperazine)].HCl [Complex 13] | – | – | – | – | – | 147 ± 10 | 45 ± 3 | 24 ± 3 | 10 ± 3 | 42 ± 3 | 16 ± 2 | 54461 | 12307 | 297 | 205 | 6 | 17 | 0.2 | −3.5 0.C | −0.30 | resistance factor (IC50 resistant/IC50 sensitive) (41McisR): 3.3; resistance factor (IC50 resistant/IC50 sensitive) (A2780cisR): 2.4; resistance factor (IC50 resistant/IC50 sensitive) (CH1cisR): 2.6; DNA platination relative to Cis-Pt (C-26 cells [5]; C-26 cells): 7 fold; DNA platination relative to Cis-Pt (OV-1063 cells [6]; OV-1063 cells): 7 fold; ΔTm, 0.01M Na+ (calf thymus DNA): +4.7 0.C; decrease of EtBr fluorescence intensity by DNA adducts (plasmid pS16-hGH DNA): considerable decrease in fluorescence; caspase-3 activation, increase in fluorescence vs untreated cells ([7]; 5 hr, 6.5 μM piperidine complex or 7.5 μM piperazine complex): ~2 fold; caspase-3 activation, increase in fluorescence vs untreated cells ([7]; 16 hr): 3 fold
